Data set [1] can be described thus: Temperature at which LMG solutions solidify (gel) on cooling. The data set is classed as physicochemical. Here is the method: The pH was then adjusted to 4-5 with HC1. Separate solutions were also prepared with increasing final concentrations of decyl glucoside: 0.0, 0.5, 1.0, 2.0, 3.0, 4.0, 5.0, 6.0. The compositions were brought into clear, colorless single phase solutions by heating to 60° C. The solutions were then cooled in a refrigerated chamber and the temperature at which gelling occurred was noted. As the concentration of decyl glucoside increased the temperature at which the LMG solution gelled decreased, forming a non-gelling glass at decyl glucoside concentrations of 5% and above. Thus the addition of decyl glucoside at concentrations of 5% or greater to a solution of 10% LMG and 10% glycerol prevents stable gel formation, even at temperatures as low as −20° C.
Composition A was prepared as described in the above table.
At room temperature the solution was viscous in consistency. The solution solidified at 15° C. […] Such phase transitions in a commercial product are unacceptable.

Consider `CCCCCCCCCCCC(=O)N(C)CC(O)C(O)C(O)C(O)CO` (stereo not drawn) [LMG, Lauroyl N-Methyl Glucamide], for which the melting point was ~ 60 °C. The “Physical state of solution” value in data set [1] (0.2 wt % solution of LMG in water, 4° C.) is “loose jelly-like solution”. The “Temperature at which hard gels form” value in data set [1] (LMG 5-15 wt % in water) is “about 35 °C”.

(Values after patent US9393447B2, “Liquid non-ionic salt-free skin and hair treatment composition that contains Lauroyl N-Methyl Glucamide” (Formula XO, Inc., priority 2013, dated 2016).)
